These results are taken from article PMC6193938, “Characterization of a novel AICARFT inhibitor which potently elevates ZMP and has anti-tumor activity in murine models” (Scientific Reports, 2018).

Where two headings read alike, the source gives them in different places.

One assay has as its system MDA-MB-231 (mammary). Description: Low folate & high folate in vitro proliferation assay (Alamar Blue). Format: cell-based. The note with it: Homo sapiens. As for the experimental part:
(§1) Cells lines were acquired from cell banks, see supplemental material, grown using the cell banks recommended culture conditions (Supplemental Table 3). In some experiments noted “low folate” the cells were washed and grown in folate free RPMI-1640 media (Gibco #27016-021) supplemented with 5 ml 1 M Hepes, 5 ml 100 mM Na pyruvate, 2.5 mg/ml glucose and 10% defined FBS (Hyclone #SH30070) per 500 mL media for 5–7 days to deplete intracellular folate levels prior to the start of the experiment. Where noted, cells were maintained in complete “high folate” RPMI-1640 media (ATCC #30-2001) with 10% defined FBS to contrast with the low folate conditions.
(§2) Cells were cultured using recommended culture conditions unless noted otherwise (Supplemental Table 3). Cells were plated, dosed with compound and incubated at 37 °C for approximately 2 doubling times as determined for each cell line. Cell Titer Glo (Promega) assay was used to measure proliferation according to manufacturer’s recommendations by measuring luminescence with Flexstation3 (Molecular Devices) with 500 ms integration time. […] The % response was fit to a four-parameter logistic equation using ACTIVITYBASE 4.0 to determine the absolute IC50 values.
(§3) For a limited number of cell lines, compound dosing was performed under high or low folate conditions with cell viability being determined with Alamar Blue rather than an ATP dependent assay. Cells were plated and treated as described above. Proliferation was measured using Alamar Blue Cell Viability Reagent (Invitrogen), and read after approximately 1.5–4 hours incubation at 37 °C on the Envision plate reader (Perkin Elmer) with excitation at 570 nm and emission at 585 nm. The % inhibition for each sample was calculated and fit as described above.
In general terms: Alamar Blue is a resazurin reagent that responds to reducing activity.

The test system of a further assay is MIA PaCa-2 (pancreas). The assay is described as above. Type of assay: cell-based. Conditions: Homo sapiens. As for the experimental part:
as §1, §2, §3

The next assay deals with SW620 (colon). The description is as above. Type of assay: cell-based. The note with it: Homo sapiens. As for the experimental part: as §1, §2, §3
The target in a further assay is T1, AKT3 (Homo sapiens, UniProt Q9Y243).
T1 construct: purchased CEREP Panlabs (Eurofins)
Description: CEREP protein kinase assay. Type of assay: biochemical.

The next assay concerns the target T2, CK1e (Homo sapiens, UniProt P49674).
T2 construct: purchased CEREP Panlabs (Eurofins)
In words: CEREP protein kinase assay. Type of assay: biochemical.

The next assay concerns the target T3, FLT3 (Homo sapiens, UniProt P36888).
T3 construct: purchased CEREP Panlabs (Eurofins)
T3 sequence (P36888 27-993): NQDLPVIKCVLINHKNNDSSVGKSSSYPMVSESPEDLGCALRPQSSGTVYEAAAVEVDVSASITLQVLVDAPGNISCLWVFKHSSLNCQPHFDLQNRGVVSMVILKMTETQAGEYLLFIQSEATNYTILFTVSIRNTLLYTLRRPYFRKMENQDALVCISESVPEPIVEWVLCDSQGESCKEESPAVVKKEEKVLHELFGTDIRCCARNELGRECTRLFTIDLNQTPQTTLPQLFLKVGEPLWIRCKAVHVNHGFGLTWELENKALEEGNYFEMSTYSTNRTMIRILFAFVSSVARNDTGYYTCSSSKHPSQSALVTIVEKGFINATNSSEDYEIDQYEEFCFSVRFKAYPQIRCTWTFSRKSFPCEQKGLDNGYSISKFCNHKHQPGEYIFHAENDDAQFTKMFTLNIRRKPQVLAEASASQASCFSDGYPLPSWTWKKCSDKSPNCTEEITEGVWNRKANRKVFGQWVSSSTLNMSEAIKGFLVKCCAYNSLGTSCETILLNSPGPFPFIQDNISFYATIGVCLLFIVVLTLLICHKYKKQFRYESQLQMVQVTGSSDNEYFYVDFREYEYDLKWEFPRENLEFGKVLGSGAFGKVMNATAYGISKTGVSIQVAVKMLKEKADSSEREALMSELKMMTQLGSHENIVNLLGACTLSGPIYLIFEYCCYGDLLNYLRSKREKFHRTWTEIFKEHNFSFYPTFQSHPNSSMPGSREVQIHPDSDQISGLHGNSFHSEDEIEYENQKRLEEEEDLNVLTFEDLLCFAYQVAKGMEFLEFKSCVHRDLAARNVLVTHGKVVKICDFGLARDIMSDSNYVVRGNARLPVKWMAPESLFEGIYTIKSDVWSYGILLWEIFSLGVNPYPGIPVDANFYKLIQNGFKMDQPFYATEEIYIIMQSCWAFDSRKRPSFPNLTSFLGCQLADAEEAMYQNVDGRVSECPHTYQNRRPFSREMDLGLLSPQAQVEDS
In words: CEREP protein kinase assay. Type of assay: biochemical.

In a further assay the target is T4, FMS (Homo sapiens, UniProt P07333).
T4 construct: purchased CEREP Panlabs (Eurofins)
In words: CEREP protein kinase assay. Type of assay: biochemical.

The next assay concerns the target T5, HIPK2 (Homo sapiens, UniProt Q9H2X6).
T5 construct: purchased CEREP Panlabs (Eurofins)
In words: CEREP protein kinase assay. Format: biochemical.

In the next assay the target is T6, IKKe (Homo sapiens, UniProt Q14164).
T6 construct: purchased CEREP Panlabs (Eurofins)
T6 sequence (Q14164 1-716): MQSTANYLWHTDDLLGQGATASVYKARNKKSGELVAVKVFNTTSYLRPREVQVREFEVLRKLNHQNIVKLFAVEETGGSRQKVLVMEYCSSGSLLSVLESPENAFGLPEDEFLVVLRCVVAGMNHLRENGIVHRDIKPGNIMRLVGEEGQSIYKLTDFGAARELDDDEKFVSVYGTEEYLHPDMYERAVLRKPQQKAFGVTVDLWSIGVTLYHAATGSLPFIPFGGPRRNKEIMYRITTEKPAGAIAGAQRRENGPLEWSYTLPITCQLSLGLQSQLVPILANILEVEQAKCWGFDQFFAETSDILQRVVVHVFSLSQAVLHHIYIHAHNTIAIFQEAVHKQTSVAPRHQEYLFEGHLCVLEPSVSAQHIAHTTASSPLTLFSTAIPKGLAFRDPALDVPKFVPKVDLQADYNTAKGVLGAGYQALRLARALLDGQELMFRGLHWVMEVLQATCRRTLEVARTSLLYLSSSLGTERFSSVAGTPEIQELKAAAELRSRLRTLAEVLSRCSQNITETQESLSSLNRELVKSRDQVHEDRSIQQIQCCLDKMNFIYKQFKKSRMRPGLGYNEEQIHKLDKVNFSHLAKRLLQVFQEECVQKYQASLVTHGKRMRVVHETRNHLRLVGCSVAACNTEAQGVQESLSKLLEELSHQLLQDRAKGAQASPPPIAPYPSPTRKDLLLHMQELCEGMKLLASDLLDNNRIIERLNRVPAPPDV
Description: CEREP protein kinase assay. Type of assay: biochemical.

Where [1] appears, read: RPMI media, read-out: Alamar Blue GI50 Regular folate.
Setting [2] is: low folate RPMI media, read-out: Alamar Blue GI50 Low folate.

T4 sequence (P07333 20-972): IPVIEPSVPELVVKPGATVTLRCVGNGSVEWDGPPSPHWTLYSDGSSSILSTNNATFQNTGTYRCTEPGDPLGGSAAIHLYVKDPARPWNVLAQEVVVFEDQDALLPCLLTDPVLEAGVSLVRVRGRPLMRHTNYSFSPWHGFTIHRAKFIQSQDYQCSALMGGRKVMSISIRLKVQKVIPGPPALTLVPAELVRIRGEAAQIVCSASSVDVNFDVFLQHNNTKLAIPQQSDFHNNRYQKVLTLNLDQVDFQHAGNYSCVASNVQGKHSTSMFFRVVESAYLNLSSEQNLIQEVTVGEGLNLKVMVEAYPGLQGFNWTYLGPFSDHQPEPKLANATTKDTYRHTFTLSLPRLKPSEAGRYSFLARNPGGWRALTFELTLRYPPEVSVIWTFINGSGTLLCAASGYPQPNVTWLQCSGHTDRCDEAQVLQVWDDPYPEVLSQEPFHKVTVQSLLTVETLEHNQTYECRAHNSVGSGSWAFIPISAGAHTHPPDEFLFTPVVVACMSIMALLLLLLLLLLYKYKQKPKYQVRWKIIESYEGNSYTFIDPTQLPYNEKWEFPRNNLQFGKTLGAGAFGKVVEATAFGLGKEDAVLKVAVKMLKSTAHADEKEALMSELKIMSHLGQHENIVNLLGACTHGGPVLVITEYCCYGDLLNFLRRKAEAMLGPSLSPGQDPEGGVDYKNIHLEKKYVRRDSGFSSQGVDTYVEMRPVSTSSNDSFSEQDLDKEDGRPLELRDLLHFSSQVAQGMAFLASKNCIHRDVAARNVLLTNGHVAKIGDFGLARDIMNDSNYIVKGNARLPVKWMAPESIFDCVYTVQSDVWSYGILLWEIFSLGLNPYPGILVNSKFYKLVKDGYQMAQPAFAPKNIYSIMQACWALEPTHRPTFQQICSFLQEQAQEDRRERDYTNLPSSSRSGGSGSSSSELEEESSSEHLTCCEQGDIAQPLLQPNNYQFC
T1 sequence (Q9Y243 whole entry): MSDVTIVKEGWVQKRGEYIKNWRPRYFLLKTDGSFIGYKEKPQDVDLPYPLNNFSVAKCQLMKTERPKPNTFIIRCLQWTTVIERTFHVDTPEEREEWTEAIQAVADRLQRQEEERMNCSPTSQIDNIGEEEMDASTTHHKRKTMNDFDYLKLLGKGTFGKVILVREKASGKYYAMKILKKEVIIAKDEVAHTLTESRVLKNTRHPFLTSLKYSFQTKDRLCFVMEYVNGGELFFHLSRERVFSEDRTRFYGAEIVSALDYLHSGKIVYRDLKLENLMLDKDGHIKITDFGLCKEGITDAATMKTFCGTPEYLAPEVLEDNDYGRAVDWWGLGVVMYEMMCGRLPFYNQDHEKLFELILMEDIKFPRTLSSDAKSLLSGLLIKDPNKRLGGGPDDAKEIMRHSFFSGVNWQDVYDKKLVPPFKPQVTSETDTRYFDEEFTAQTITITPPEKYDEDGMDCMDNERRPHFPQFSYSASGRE
T5 sequence (Q9H2X6 whole entry): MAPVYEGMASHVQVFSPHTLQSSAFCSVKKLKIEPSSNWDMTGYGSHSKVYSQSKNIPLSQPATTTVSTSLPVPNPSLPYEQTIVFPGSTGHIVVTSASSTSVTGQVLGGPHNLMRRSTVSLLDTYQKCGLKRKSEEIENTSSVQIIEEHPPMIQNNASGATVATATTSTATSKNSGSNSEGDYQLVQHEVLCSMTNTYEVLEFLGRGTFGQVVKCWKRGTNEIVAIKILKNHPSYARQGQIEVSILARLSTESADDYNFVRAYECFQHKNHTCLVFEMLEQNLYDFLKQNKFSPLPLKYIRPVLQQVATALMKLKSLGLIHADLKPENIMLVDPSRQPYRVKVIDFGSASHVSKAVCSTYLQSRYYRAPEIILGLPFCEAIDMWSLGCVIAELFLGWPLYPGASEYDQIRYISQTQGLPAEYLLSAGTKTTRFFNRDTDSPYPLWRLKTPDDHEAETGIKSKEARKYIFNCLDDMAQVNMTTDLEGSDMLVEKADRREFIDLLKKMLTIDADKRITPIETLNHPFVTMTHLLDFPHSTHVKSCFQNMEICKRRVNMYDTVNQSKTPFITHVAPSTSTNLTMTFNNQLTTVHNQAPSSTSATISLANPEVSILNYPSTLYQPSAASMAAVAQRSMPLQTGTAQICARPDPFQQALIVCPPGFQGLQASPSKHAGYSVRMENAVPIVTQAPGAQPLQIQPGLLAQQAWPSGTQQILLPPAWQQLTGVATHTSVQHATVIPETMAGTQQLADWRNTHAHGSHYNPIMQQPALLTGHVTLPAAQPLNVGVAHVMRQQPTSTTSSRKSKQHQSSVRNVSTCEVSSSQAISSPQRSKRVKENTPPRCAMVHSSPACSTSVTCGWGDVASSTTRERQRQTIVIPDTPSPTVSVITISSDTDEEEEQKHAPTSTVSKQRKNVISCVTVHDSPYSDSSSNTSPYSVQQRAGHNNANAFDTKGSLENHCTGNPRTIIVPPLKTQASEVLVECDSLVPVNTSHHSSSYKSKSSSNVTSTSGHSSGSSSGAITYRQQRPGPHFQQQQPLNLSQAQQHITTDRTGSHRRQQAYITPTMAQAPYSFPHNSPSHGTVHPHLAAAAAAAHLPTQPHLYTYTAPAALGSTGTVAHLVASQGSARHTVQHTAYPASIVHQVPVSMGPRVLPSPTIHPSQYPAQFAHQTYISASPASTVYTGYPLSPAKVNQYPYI
T2 sequence (P49674 whole entry): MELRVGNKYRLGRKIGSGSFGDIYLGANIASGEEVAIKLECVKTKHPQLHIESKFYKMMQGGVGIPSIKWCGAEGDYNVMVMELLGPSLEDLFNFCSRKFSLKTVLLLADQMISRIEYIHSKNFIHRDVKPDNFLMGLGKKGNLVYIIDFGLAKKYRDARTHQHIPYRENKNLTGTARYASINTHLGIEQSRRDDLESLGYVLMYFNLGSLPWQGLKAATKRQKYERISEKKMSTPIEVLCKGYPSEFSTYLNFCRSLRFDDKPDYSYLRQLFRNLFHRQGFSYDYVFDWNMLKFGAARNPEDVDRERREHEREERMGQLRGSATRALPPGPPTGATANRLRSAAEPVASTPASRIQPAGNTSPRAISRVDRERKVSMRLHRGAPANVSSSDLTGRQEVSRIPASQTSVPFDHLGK

A word on the GI50: it is the concentration that inhibits growth by half. As a reminder, the inhibition is the change of the read-out against control, counted positive when it falls. In the case of `O=c1[nH]ccc2cc(F)c(NS(=O)(=O)c3ccc(N4CC[C@@H](O)C4)s3)cc12` [LSN3213128, N-(6-Fluoro-1-oxo-1,2-dihydroisoquinolin-7-yl)-5-[(3R)-3-hydroxypyrrolidin-1-yl]thiophene-2-sulfonamide], the concentration for 50% growth inhibition (GI50) in the assay on MDA-MB-231 (mammary) (setting [1]) was found to be 85 ± 42 nM; in the assay with MDA-MB-231 (mammary) (setting [2]), 0.49 nM; in the assay with MIA PaCa-2 (pancreas) (setting [1]) it was 4870 ± 4200 nM; with MIA PaCa-2 (pancreas) (setting [2]), 1.6 ± 1 nM; in the assay with SW620 (colon) (SW-620, RPMI media, read-out: Alamar Blue GI50 Regular folate), 3910 ± 3240 nM; in the assay with SW620 (colon) (SW-620, low folate RPMI media, read-out: Alamar Blue GI50 Low folate) it was 8.8 ± 1.6 nM. The inhibition at 0.2 µM was -0.699% at AKT3 (@ 0.2 uM); -4.69% on CK1e (@ 0.2 uM); -12.1% at FLT3 (@ 0.2 uM); 2.06% on FMS (@ 0.2 uM); -9.39% on HIPK2 (@ 0.2 uM); -0.0712% at IKKe (@ 0.2 uM). In addition, the inhibition at 2 µM on AKT3 (@ 2 uM) was 5.67%; against CK1e (@ 2 uM), -1.12%; against FLT3 (@ 2 uM), 10.7%; on FMS (@ 2 uM) it was 19.2%; against HIPK2 (@ 2 uM) it was 6.25%; on IKKe (@ 2 uM) it was 8.91%. Besides, the inhibition at 20 µM on AKT3 (@ 20 uM) worked out at 13%; against CK1e (@ 20 uM) it was 7.65%; against FLT3 (@ 20 uM), 53.2%; at FMS (@ 20 uM) it was 48.4%; against HIPK2 (@ 20 uM), 14.1%; at IKKe (@ 20 uM), 11.7%.
